How the values were obtained:
[1] = DMR measurement of deuterated glucose metabolism in mice; assay type: in vivo, mice (C57/BL6); conditions: mice injected iv or ip with 8.9 mg deuterated glucose, whole-body DMR spectrum
Method: (§1) DMR measurements (AQ 0.2s; TR 0.3s; NS 128; LB 30; 38s/spectrum) were performed at 9.4 T on a wide bore (89 mm) Bruker Avance microimager equipped with a multinuclear probe. A set of experiments was performed on three male mice (C57/BL6) and another set, on Tenebrio molitor larvae. Mouse 1 (25 g), was injected iv with 8.9 mg deuterated glucose (ISOTEC) dissolved in 0.4 ml saline solution; it was sacrificed after 1.5 hr and, after dissection, its whole body (except fur and skin) was placed in a 20 mm NMR tube for running the DMR spectrum (shown in FIG. 4, upper trace). Mouse 2, (32 g) injected ip with the same amount of glucose-d7 as mouse 1 was sacrificed after 3.5 hr, and yielded the spectrum seen in the same FIG. 4, second trace. Tenebrio molitor larvae were starved for several days, then placed in a 20 mm NMR tube together with food consisting of 0.4 g bran wetted with an aqueous solution of deuterated glucose.

[2] = DMR measurement of deuterated glucose metabolism in Tenebrio molitor larvae; assay type: in vivo; conditions: starved larvae fed bran wetted with aqueous deuterated glucose, 2H spectrum
Method: as §1
In our approach, the excellent tracer quality of deuterium (natural abundance 0.015%) is combined with the fact that only two well separated peaks are to be measured; that of nascent metabolic water, and that of the aliphatic chain of fatty acids. Thus, in spite of their large line widths (100-230 Hz) due to the electric quadrupole moment and unfavorable correlation times, the spectra can be interpreted in a quantitative manner. […]

[3] = test system: malignant cells; conditions: Kushner et al. 1999; cited from earlier work

| Structure (SMILES) | consumption of deuterated glucose ([1]; sacrificed after 1.5 hr or 3.5 hr) | metabolic fate of deuterated glucose (metabolic water / fat) [1] | incorporation of D-label into fat [2] | metabolism of glucose into deuterated water ([2]; end of the experiment) | toxicity to malignant cells compared with normal animal cells [3] |
| --- | --- | --- | --- | --- | --- |
| [2H]C1(O)O[C@]([2H])(C([2H])([2H])O)[C@@]([2H])(O)[C@]([2H])(O)[C@@]1([2H])O (stereo partly drawn) [deuterated glucose, D-7 Glucose[1,2,3,4,5,6,6-2H7]] | all deuterated glucose was consumed by the mice | most of it provided protons for the formation of metabolic water, part of it was metabolized into fat | did not incorporate a visible amount of D-label into fat | all glucose was metabolized into deuterated water | – |
| [2H]O[2H] [D2O] | – | – | – | – | more toxic to malignant cells than normal animal cells |

— patent US10646594B2, “Deuterated metabolic water precursor for detecting and treating diseased tissue” (CASE WESTERN RESERVE UNIVERSITY, priority 2009, dated 2020)
